Earlier results in patent publication EP0699249B1, “METHODS FOR TREATING NON-COTTON-CONTAINING FABRICS WITH CELLULASE” (GENENCOR INTERNATIONAL, INC., priority 1994, dated 1995).

Target: CBH I and CBH II from Trichoderma longibrachiatum
Details: competitive inhibition of CBH components

For `O=C[C@H](O)[C@@H](O)[C@H](O[C@@H]1O[C@H](CO)[C@@H](O)[C@H](O)[C@H]1O)[C@H](O)CO` [cellobiose], the Ki is listed as ~1000 µM.
